Tests used:
mice = assay: Cognitive performance, the Y-maze; type: in vivo; details: oral, 15 days, FIG. 4
Description: Cognitive performance, the Y-maze. Mice will be acclimated to a Y-maze having two familiar arms and one unfamiliar arm 1 day prior to testing (i.e., day-1). One the days of testing mice will be placed in the Y-maze and allowed to freely explore for 5 minutes. Behaviours scored will include total locomotion, time spent in each arm, number of arm entries, and correct alternations between the novel arm and familiar arms. A pro-cognitive effect will be reflected by increased time spent in the novel arm and increased percent correct alternations.

BDNF = assay: Brain levels of BDNF in mice after acute treatment; type: in vivo; details: 1 hour after oral administration, Co-crystal Form A 3 mg/kg, Aripiprazole 0.3 mg/kg, FIG. 5
[1] = test system: neuronal progenitor/stem cell levels in mice brain; assay: Neuronal progenitor/stem cell levels in mice brain (immunohistochemistry); type: in vivo; details: 14 days oral; co-crystal form A 3 mg/kg, aripiprazole 0.3 mg/kg; FIG. 6
active neurons = assay: Neuronal activation in mice (number of active neurons); details: 21 days oral, co-crystal form A 3 mg/kg, aripiprazole 0.3 mg/kg, FIG. 7
Description: For immunohistochemistry sampling, EdU (5-Ethynyl-2′-deoxyuridine, Lumiprobe, 100 μg/g) was injected together with the drugs for the first 7 days. On the day following the 14-day treatment period, the brains of the mice were dissected for subsequent analyses, including immunohistochemistry and electrophysiology (E-phys).

O=C1CCc2ccc(OCCCCN3CCN(c4cccc(Cl)c4Cl)CC3)cc2N1 [aripiprazole]
short-term and working memory (Y-maze), compared to control (mice): smaller but significant increase
brain levels of BDNF (BDNF): significant increase in brain levels of BDNF
neuronal progenitor/stem cell levels in mice brain [1]: no significant effect
change in neuronal activation (number of active neurons) (active neurons): significant increase

— patent US20250177422A1 (ZYLORION HEALTH INC., priority 2023, published 2025)
